From US9809532B2, “Uses of histone acetyltransferase activators” (THE TRUSTEES OF COLUMBIA UNIVERSITY IN THE CITY OF NEW YORK, priority 2011, dated 2017)
pEC50: −log10 of the molar value. Read-outs that look alike come from different tables or passages of the source.

Experiments:
[1] = molecular target: human p300 (Homo sapiens, UniProt Q09472); experiment: p300 activation, in vitro assay; format: biochemical
[2] = Pharmacokinetics and BBB penetration after i.p. and i.v. administration (LC-MS/MS); format: in vivo, BALB/c mice; settings: 20 mg/kg; for Kp: brain/plasma
Experimental: After i.p. and i.v. administration at 20 mg/kg to BALB/c mice, plasma and brain concentrations were determined by LC-MS/MS.

[3] = Chronic administration, adverse effects; format: in vivo; settings: 45 days, i.p., daily, 20 mg/kg
[4] = tested on: histone lysines H3K4, H3K9, H3K14, H4K5, H4K8, H4K12, H4K16, and H2B; experiment: Histone acetylation in mouse hippocampus (WB analysis); format: in vivo; settings: for acetylation of histone lysines (H3, H4, H2B) in hippocampus: 20 mg/Kg i.p., 30 min, FIG. 22
Experimental: The compound was i.p. administered at 20 mg/Kg, mice were sacrificed 30 min later, and hippocampi were removed and quickly frozen for WB analysis.

[5] = molecular target: T1, HDAC6 (Homo sapiens, UniProt Q9UBN7); experiment: HDAC6 activity assay (fluorescence); settings: Compound 1 Log [nM] 4.0; Repeat1/Repeat2
T1 sequence (Q9UBN7 1-1215): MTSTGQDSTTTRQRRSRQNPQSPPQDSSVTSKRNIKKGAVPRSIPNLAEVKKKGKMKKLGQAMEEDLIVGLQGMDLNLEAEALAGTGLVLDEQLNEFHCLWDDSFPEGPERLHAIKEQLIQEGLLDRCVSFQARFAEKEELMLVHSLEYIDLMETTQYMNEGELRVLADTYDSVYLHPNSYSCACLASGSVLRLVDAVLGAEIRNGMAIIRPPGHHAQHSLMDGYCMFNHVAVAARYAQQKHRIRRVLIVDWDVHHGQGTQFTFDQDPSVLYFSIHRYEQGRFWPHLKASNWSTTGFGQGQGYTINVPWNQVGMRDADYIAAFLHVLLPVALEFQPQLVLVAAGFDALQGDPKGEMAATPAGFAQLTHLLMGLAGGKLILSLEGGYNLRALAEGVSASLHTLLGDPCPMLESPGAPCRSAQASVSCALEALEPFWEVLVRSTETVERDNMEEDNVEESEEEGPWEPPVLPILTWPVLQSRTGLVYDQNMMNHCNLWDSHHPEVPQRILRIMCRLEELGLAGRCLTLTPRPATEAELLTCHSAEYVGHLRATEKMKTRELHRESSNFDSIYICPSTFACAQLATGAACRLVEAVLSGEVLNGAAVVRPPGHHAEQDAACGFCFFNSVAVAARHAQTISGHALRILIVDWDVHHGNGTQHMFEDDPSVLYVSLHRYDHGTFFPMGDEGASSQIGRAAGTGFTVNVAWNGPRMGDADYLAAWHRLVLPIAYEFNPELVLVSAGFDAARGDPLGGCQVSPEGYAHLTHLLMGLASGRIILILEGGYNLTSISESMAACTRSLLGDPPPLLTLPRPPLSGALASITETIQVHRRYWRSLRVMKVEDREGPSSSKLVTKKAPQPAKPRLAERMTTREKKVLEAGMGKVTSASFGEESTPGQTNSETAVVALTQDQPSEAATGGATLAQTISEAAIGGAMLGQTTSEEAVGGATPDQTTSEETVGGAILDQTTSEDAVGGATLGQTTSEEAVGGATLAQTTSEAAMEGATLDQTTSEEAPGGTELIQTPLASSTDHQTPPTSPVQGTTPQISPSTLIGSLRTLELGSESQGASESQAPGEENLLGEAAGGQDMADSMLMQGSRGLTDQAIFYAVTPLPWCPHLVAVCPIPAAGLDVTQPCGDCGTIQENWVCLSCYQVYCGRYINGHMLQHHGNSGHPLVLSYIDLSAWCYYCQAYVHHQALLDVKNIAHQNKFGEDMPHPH

[6] = molecular target: T2, Sirtuin 2 (Homo sapiens, UniProt Q8IXJ6); experiment: Sirtuin 2 activity assay (fluorescence); settings: Compound 1 Log [nM] 4.0; Repeat1/Repeat2
T2 sequence (Q8IXJ6 1-389): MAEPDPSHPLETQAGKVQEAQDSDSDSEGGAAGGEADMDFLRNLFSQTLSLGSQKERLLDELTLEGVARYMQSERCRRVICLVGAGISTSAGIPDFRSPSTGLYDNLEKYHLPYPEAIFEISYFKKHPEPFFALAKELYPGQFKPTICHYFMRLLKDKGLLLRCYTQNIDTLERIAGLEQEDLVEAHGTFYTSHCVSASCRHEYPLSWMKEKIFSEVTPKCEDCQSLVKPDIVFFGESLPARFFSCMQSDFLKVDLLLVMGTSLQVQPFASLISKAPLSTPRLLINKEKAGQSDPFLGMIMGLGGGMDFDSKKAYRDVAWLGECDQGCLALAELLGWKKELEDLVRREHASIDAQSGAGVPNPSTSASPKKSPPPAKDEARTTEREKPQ

Chain of human p300 (Q09472 whole entry): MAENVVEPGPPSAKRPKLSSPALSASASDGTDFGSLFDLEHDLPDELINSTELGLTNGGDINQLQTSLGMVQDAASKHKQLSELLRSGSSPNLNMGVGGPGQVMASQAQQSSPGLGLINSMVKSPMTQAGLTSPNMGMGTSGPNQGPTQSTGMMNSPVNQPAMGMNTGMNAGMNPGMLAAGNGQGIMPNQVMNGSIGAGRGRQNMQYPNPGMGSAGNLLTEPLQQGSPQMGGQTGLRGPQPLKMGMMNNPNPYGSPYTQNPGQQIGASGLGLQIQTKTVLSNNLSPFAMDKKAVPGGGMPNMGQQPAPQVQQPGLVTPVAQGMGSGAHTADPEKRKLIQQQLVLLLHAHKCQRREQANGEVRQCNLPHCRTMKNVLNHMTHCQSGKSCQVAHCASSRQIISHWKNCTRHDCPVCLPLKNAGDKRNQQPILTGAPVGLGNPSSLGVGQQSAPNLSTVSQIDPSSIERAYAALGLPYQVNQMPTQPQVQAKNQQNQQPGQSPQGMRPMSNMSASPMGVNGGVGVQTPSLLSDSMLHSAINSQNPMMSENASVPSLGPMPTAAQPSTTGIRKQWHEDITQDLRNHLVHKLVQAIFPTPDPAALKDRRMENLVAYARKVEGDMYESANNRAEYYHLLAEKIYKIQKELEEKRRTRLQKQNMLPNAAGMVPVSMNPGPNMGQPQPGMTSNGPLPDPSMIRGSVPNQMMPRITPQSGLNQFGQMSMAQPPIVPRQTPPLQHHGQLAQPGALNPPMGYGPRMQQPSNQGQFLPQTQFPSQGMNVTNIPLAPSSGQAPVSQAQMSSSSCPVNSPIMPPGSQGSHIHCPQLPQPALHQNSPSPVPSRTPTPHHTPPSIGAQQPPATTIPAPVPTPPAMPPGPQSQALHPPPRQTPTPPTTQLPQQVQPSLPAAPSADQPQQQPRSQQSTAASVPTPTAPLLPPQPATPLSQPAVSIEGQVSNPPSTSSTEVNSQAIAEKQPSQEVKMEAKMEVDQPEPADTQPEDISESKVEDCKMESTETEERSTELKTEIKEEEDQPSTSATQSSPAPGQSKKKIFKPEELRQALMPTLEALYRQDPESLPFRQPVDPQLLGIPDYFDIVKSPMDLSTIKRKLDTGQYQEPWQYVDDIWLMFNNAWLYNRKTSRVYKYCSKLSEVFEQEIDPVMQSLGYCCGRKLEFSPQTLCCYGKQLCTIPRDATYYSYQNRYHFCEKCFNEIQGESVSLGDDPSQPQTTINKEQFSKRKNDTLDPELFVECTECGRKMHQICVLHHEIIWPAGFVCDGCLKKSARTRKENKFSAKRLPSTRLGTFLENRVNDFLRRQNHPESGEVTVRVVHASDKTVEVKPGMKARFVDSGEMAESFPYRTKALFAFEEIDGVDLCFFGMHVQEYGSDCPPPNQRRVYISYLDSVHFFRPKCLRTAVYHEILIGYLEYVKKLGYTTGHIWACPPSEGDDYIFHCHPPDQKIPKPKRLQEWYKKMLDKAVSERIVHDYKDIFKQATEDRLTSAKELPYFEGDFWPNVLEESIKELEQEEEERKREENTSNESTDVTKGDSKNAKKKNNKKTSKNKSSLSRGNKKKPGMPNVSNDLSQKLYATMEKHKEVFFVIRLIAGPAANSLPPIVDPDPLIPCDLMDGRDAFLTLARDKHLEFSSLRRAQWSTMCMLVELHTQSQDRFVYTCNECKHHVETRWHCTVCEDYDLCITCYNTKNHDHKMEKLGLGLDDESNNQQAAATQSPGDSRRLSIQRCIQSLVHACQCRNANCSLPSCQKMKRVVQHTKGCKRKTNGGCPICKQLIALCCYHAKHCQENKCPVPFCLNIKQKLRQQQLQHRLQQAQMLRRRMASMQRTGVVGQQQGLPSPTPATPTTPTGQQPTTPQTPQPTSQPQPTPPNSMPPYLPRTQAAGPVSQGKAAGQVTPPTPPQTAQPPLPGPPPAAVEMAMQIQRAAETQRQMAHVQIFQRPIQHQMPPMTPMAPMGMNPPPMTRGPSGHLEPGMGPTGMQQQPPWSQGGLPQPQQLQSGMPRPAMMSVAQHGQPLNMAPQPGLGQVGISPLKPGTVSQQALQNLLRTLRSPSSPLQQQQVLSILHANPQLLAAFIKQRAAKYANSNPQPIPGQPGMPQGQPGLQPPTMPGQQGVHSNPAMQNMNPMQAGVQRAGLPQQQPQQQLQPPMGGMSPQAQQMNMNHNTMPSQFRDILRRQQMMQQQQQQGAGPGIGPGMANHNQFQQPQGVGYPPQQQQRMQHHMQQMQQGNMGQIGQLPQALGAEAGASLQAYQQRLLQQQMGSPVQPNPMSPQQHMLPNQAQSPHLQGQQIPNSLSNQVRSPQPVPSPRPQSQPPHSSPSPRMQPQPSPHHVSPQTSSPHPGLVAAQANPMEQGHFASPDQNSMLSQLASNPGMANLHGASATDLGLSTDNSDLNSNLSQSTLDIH

CCOc1cccc(OCCN(C)C)c1C(=O)Nc1ccc(Cl)c(C(F)(F)F)c1 [Compound 1]
effect on p300 activity [1]: increases p300 activity
pEC50 ([1]; FIG. 16): 6.10
effect on p300 activity ([1]; listed as compound 1): did not interfere with p300
Kp ([2]; BALB/c, mouse, ip, IP, read-out: AUC0-t ratio brain/plasma): 8.2
Kp ([2]; BALB/c, mouse, ip, IP, read-out: AUC0-∞ ratio brain/plasma): 8.1
Kp ([2]; BALB/c, mouse, ip, IP, read-out: Cmax ratio brain/plasma): 5.8
Kp ([2]; BALB/c, mouse, iv, IV, read-out: AUC0-t ratio brain/plasma): 10.8
Kp ([2]; BALB/c, mouse, iv, IV, read-out: AUC0-∞ ratio brain/plasma): 11.2
Kp ([2]; BALB/c, mouse, iv, IV, read-out: Cmax ratio brain/plasma): 13.1
Tmax ([2]; BALB/c, mouse, intraperitoneal, brain, read-out: Tmax in the brain (converted)): 15 min
half-life ([2]; BALB/c, mouse, ip, i.p., brain and plasma, read-out: elimination half-lives in the brain and plasma): ~40 min
Cmax ([2]; BALB/c, mouse, IP, brain): 4880 ng/g
MRT ([2]; BALB/c, mouse, IP, brain): 61.8 min
Tmax ([2]; BALB/c, mouse, IP, brain, read-out: Tmax): 15 min
half-life ([2]; BALB/c, mouse, IP, brain, read-out: t½ (converted)): 37.8 min
AUC(0-inf) ([2]; BALB/c, mouse, IP, plasma): 813 ng·h/mL
Cmax ([2]; BALB/c, mouse, IP, plasma): 843 ng/mL
MRT ([2]; BALB/c, mouse, IP, plasma): 51 min
AUC0-t ([2]; BALB/c, mouse, IP, plasma, read-out: AUC0-t): 806 ng·h/mL
Tmax ([2]; BALB/c, mouse, IP, plasma, read-out: Tmax): 15 min
half-life ([2]; BALB/c, mouse, IP, plasma, read-out: t½ (converted)): 36 min
Cmax ([2]; BALB/c, mouse, IV, brain): 27900 ng/g
MRT ([2]; BALB/c, mouse, IV, brain): 44.4 min
Tmax ([2]; BALB/c, mouse, IV, brain, read-out: Tmax): 7.5 min
half-life ([2]; BALB/c, mouse, IV, brain, read-out: t½ (converted)): 37.8 min
AUC(0-inf) ([2]; BALB/c, mouse, IV, plasma): 2020 ng·h/mL
Cmax ([2]; BALB/c, mouse, IV, plasma): 2130 ng/mL
MRT ([2]; BALB/c, mouse, IV, plasma): 50.4 min
AUC0-t ([2]; BALB/c, mouse, IV, plasma, read-out: AUC0-t): 1970 ng·h/mL
Tmax ([2]; BALB/c, mouse, IV, plasma, read-out: Tmax): 7.5 min
half-life ([2]; BALB/c, mouse, IV, plasma, read-out: t½ (converted)): 42 min
AUC0-t ([2]; IP, brain): 6493 ng·h/g
AUC0-∞ ([2]; IP, brain): 6564 ng·h/g
F ([2]; IP, brain): 29.2%
F ([2]; IP, plasma): 41.0%
AUC0-t ([2]; IV, brain): 22222 ng·h/g
AUC0-∞ ([2]; IV, brain): 22581 ng·h/g
amount in the brain compared with plasma ([2]; i.p. and i.v.): higher than that in the plasma
adverse effects on chronic administration [3]: did not have adverse effects
acetylation of histone lysines (H3, H4, H2B) in hippocampus [4]: increased acetylation of histone lysines
acetylation of histone lysines (H3, H4, H2B) in hippocampus ([4]; listed as YF2): increased specific acetylation of H3, H4, and H2B
crossing of the BBB ([4]; i.p., western blot, FIG. 21): crosses the BBB
histone 3 acetylation levels of the hippocampus ([4]; i.p., western blot, FIG. 21): increases histone 3 acetylation levels
% Activity (HDAC6) [5]: 94.62%
% Activity (Sirtuin 2) [6]: 97.71%
